Measurements from BindingDB's records for doi:10.1128/aac.00737-07 (Duke University Medical Center, 2008).

Columns and labels:
[1] = Inhibition of HIV1 (isolate YU2) envelope glycoprotein 120-mediated membrane fusion between virus-transfected african green monkey COS cells and human TZM-bl cells by luciferase-based cell-cell fusion assay in absence of IC9564
[2] = Inhibition of HIV1 (isolate YU2) envelope glycoprotein 120-mediated membrane fusion between virus-transfected african green monkey COS cells and human TZM-bl cells by luciferase-based cell-cell fusion assay in presence of IC9564

COc1ccnc2[nH]cc(C(=O)C(=O)N3CCN(C(=O)c4ccccc4)C[C@H]3C)c12 [(R)-1-(4-benzoyl-2-methylpiperazin-1-yl)-2-(4-methoxy-1H-pyrrolo[2,3-b]pyridin-3-yl)ethane-1,2-dione]
IC50 [1]: 137 nM
IC50 [2]: 34.4 nM
